We go through 15 compounds from patent publication US6165770A, “Alkaline stable amylase from Thermoalcalibacter” (Novo Nordisk A/S, priority 1996, dated 2000).

Structures can show the parent of a compound that is named as a salt.

One assay addresses T1, α-amylase from Thermoalcalibacter bogoriae (Anaerobranca gottschalkii, UniProt Q5I942).
T1 sequence (Q5I942 24-532): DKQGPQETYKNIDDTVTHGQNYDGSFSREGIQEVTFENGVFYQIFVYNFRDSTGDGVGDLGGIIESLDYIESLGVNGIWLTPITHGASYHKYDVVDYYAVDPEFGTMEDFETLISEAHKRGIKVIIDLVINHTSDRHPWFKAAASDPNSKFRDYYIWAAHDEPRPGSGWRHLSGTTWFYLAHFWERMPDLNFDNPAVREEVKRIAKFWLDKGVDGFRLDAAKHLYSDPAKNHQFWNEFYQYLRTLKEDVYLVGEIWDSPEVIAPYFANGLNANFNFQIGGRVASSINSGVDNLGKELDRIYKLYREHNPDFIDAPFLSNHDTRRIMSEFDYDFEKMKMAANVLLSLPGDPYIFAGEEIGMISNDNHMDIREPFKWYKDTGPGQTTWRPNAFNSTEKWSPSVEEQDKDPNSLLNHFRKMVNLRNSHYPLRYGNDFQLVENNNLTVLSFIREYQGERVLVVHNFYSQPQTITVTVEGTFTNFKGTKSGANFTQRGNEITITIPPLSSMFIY
Description: Effect of metal ions and chemical reagents on amylase activity. The format is biochemical. The note with it: pH 8. As to the method:
The effect of metal ions on the activity of the amylase of the present invention was examined by pre-incubating the enzyme together with metal ions for 30 min. at 65° C., pH 8.0 in a substrate solution containing (wt/vol) soluble starch (0.5%). Subsequently an enzyme assay was performed at 65° C. for 30 min in order to determine the residual activity of the amylase. For further details see working example herein (vide infra) and FIG. 4.
The amylase activity was measured at pH 8.0 -higher pH would interfere with metal ion solutions- and 65° C. in presence of various metal ions at 1 mM, 2 mM and 5 mM concentration and in presence of some chemical reagents (FIG. 4).
As to `O=C(O)CN(CCN(CC(=O)O)CC(=O)O)CC(=O)O` [EDTA], the “effect of metal ions on amylase activity” value is on record as “not or only slightly inhibited”.

The assay is the same for the next values; noted with them: pH 8.0, 65° C., 1 mM, 2 mM and 5 mM.
As to `[Ca+2]` [Ca^2+], the “effect of metal ions on amylase activity” value is reported as “not or only slightly inhibited”.
Still for that read-out and setting: as for `[Co+2]` [Co^2+], the entry is “not or only slightly inhibited”.
The same measure, in the same setting: as for `[Cr+6]` [Cr^6+], the entry is “Strong inhibition”; as for `[Cu+2]` [Cu^2+], “Strong inhibition”.
As for `[Fe+2]` [Fe^2+], the “effect of metal ions on amylase activity” value is listed as “Strong inhibition”.
On the same count and under the same terms, with `[Mg+2]` [Mg^2+] the entry was “Moderate inhibition”; with `[Mn+2]` [Mn^2+], “moderate stimulation”; with `[Ni+2]` [Ni^2+], “Moderate inhibition”.
`[V+4]` [V^4+]: the “effect of metal ions on amylase activity” value is given as “Strong inhibition”.
Still for that read-out and setting: with `[Zn+2]` [Zn^2+] the entry was “Moderate inhibition”.

Still in this assay, the particulars now being: pH 8.0, 65° C., 5 mM.
With `OC(CS)C(O)CS` (stereo not drawn) [DTT], the “effect of chemical reagents on amylase activity at 5 mM” value is given as “totally inhibited”.
The same measure, in the same setting: as for `N=C(N)N` [Guanidine-HCl], the entry is “stimulatory effect”; as for `NCCc1ccc(S(=O)(=O)F)cc1` [Pefabloc SC], “did not interfer”; as for `CCCCCCCCCCCCOS(=O)(=O)O` [SDS], “totally inhibited”.
